Where a name gives a salt, the structure may show the parent alone.
The molecules below were run on MDA formation in rat brain synaptosomes (assay: Malonyldialdehyde (MDA) Formation Assay (lipid peroxidation)). Conditions: active = 50% inhibition or more at 200 μM or less.
Assay type: biochemical
Excerpt: The MDA assays of Buege and Aust, Methods in Enzymology, Fleisher and Packer Editors. Academic Press, 1978, New York, Vol LII, p 302-310 and Kohn and Liversedge, J. Pharmacol. Exp. Ther. 82. […] Since iipid peroxidation is involved in the pathophysiology of central nervous system trauma, compounds which inhibit MDA formation are useful in treating the conditions listed below.
While not necessary to determine MDA formation, the above assays have been modified as follows: rat brain synaptosomes are prepared as described in the Example about the conjugated diene assay, except that the final wash of the synaptosomes and final suspension are in physiological (normal) saline in which the pH has been adjusted to 7 0. The synaptosomes are incubated for 10 min at 37° in physiological (normal) saline pH 7.0 (total volume=100 ul) containing; 10 ul synaptosomal suspension. 10% DMSO plus or minus drug. 150 uM Fe^+++ and 50 uM Fe^++. The incubation is started by the rapid addition of iron to the otherwise complete reaction. The iron solutions are prepared fresh as ferric chloride and ferrous ammonium sulfate in argon-purged water. Following the 10 min incubation, the reaction is stopped by the addition of 500 ul ice-cold 12% trichloroacetic acid prepared in 0.5 N hydrochloric acid. Water (300 ul) is then added along with 100 ul of freshly prepared thiobarbituric acid (3.3% in 0.5N sodium hydroxide) and 10 ul of 5mM desferrioxamine. The sample is then heated in a boiling water bath for 20 minutes. The samples are cooled and centrifuged for 15 minutes at 1500 xg and the absorbance of the supernatant fraction is read at 532 nm. The % inhibition of MDA formation is calculated by dividing the absorbance of sample containing drug by the absorbance of samples incubated without drug. Reaction blanks are samples incubated in the absence of iron A compound that inhibits MDA formation by 50% or more at a concentration of 200μM or less is considered "active".

Structure (SMILES)	inhibition of MDA formation
C[C@@H]1C[C@H]2[C@@H]3CCC4=CC(=O)C=C[C@]4(C)[C@H]3CC[C@]2(C)[C@H]1C(=O)CN1CCN(c2cc(N3CCCC3)nc(N3CCCC3)n2)CC1.Cl.Cl [Example 121, 16α-Methyl-21-[4-[2,6-bis(1-pyrrolidinyl)-4-pyrimidinyl]-1-piperazinyl]pregna-1,4-diene-3,20-dione dihydrochloride]	demonstrate such activity
C[C@H]1C[C@H]2[C@@H]3C[C@H](F)C4=CC(=O)CC[C@]4(C)C3=CC[C@]2(C)[C@@]1(O)C(=O)CN1CCN(c2cc(N3CCCC3)nc(N3CCCC3)n2)CC1.Cl.Cl [Example 118, 6α-Fluoro-17α-hydroxy-16β-methyl-21-[4-[2,6-bis(1-pyrrolidinyl)-4-pyrimidinyl]-1-piperazinyl]-pregna-4,9(11)-diene-3,20-dione dihydrochloride]	demonstrate such activity
COc1ccc2c(c1)CC[C@@H]1[C@@H]2CC[C@@]2(C)[C@H]1CC[C@]2(O)C(=O)CN1CCN(c2cc(N3CCCC3)nc(N3CCCC3)n2)CC1 [Example 125, 3,17α-Dihydroxy-21-[4-[2,6-bis(1-pyrrolidinyl)-4-pyrimidinyl]-1-piperazinyl]-19-norpregna-1,3,5(10)-trien-20-one 3-methyl ether (E)-2-butenedioate 1:1 salt]	demonstrate such activity
C[C@]12CC[C@@H]3c4ccc(O)cc4CC[C@H]3[C@@H]1CC[C@]2(O)C(=O)CN1CCN(c2cc(N3CCCC3)nc(N3CCCC3)n2)CC1 [Example 129, 3,17α-Dihydroxy-21-[4-[2,6-bis(1-pyrrolidinyl)-4-pyrimidinyl]-1-piperazinyl]-19-norpregna-1,3,5(10)-trien-20-one(E)-2-butenedioate 1:1 salt]	demonstrate such activity
C[C@]12CCC(=O)C=C1CC[C@@H]1C2=CC[C@]2(C)[C@@H](CCN3CCN(c4cc(N5CCCC5)nc(N5CCCC5)n4)CC3)CC[C@@H]12.Cl [Example 104, 21-[4-(2,6-Bis(1-pyrrolidinyl)-4-pyrimidinyl)-1-piperazinyl]pregna-4,9(11)-dien-3-one hydrochloride]	demonstrate such activity
C[C@@]12C(=CC(=O)C[C@@H]1C#N)CC[C@@H]1C2=CC[C@]2(C)[C@@H](CCN3CCN(c4cc(N5CCCC5)nc(N5CCCC5)n4)CC3)CC[C@@H]12.Cl.Cl.Cl.O [Example 110, 21-[4-(2,6-Bis(1-pyrrolidinyl)-4-pyrimidinyl)-1-piperazinyl]-1α-cyanopregna-4,9(11)-diene-3-one-trihydrochloride, hydrate]	demonstrate such activity
C[C@]12CC[C@H]3[C@@H](CCC4=CC(=O)CC[C@@]43C)[C@@H]1CC[C@@H]2CCN1CCN(c2cc(N3CCCC3)nc(N3CCCC3)n2)CC1.Cl [Example 107, 21-[4-(2,6-Bis(1-pyrrolidinyl)-4-pyrimidinyl)-1-piperazinyl]pregna-4-ene-3-one hydrochloride]	demonstrate such activity

These molecules were tested on angiogenesis (assay: fertile egg or chick embryo assay of Folkman (inhibition of angiogenesis / tumor growth)). Conditions: chick embryo; 50 μg/10 μl with heparin; avascular zone 4 mm or greater.
Assay type: in vivo
Protocol: According to this procedure compounds which are considered to be "active" (i.e, antiangiogenic) give an avascular zone of 4 mm or greater in some embryos when tested at 50 μg/10 μl in the presence of 50 μg/10 μ of heparin.

Structure (SMILES)	inhibition of angiogenesis
C[C@]12CCC(=O)C=C1CC[C@@H]1C2=CC[C@]2(C)[C@@H](CCN3CCN(c4cc(N5CCCC5)nc(N5CCCC5)n4)CC3)CC[C@@H]12.Cl [Example 104, 21-[4-(2,6-Bis(1-pyrrolidinyl)-4-pyrimidinyl)-1-piperazinyl]pregna-4,9(11)-dien-3-one hydrochloride]	demonstrate inhibition of angiogenesis

Reference: patent USRE35053E, “Amines useful in producing pharmaceutically active CNS compounds” (The Upjohn Company, priority 1992, dated 1995)
